From US20240218066A1, “USE OF ANTI-PD-1 ANTIBODY IN COMBINATION WITH FIRST-LINE CHEMOTHERAPY IN TREATMENT OF ADVANCED NON-SMALL CELL LUNG CANCER” (SHANGHAI JUNSHI BIOSCIENCES CO., LTD., priority 2021, published 2024)

Assays:
[1] = tested on: patients with untreated advanced NSCLC; experiment: Phase III clinical study, efficacy assessed by the investigator according to RECIST 1.1; format: in vivo, human; design: reduction of the risk of progression or death, compared to standard chemotherapy / increase of PFS rate at 6 months compared to control group / increase of PFS rate at 12 months compared to control group / increase in ORR compared to control group: concentration or dose not given beside the values
Protocol: (§1) About 450 patients with advanced NSCLC not accompanied by EGFR-sensitive mutations and ALK fusions were randomly divided into two groups according to a 2:1 ratio, with the test group receiving toripalimab in combination with first-line standard chemotherapy and the control group receiving placebo in combination with first-line standard chemotherapy. Stratification was performed according to PD-L1 expression (TC≥1% vs TC<1%), smoking status (frequent smoking vs no smoking or little smoking), and pathological type (squamous cell carcinoma vs non-squamous cell carcinoma).
(§2) After randomization, the patients were subjected to treatment in the induction stage for 4-6 cycles, during which the patients received toripalimab/placebo+first-line standard chemotherapy. After the induction stage was over, the patients were subjected to treatment in the maintenance stage, during which patients with squamous cell carcinoma continued to receive toripalimab/placebo treatment until progressive disease, and patients with non-squamous cell carcinoma continued to receive toripalimab/placebo+pemetrexed treatment until progressive disease.
Tumor assessments were performed once every 6 weeks for the first 12 months of the study stage according to RECIST 1.1 and iRECIST; after 12 months, tumor assessments were performed every 9 weeks until progressive disease, initiation of a new anti-tumor therapy, intolerable toxicity, withdrawal of informed consent or death, 2 years of treatment with toripalimab, or other reasons as specified in the protocol, whichever occurred first.
Eligible subjects must (1) be patients with histologically and/or cytologically confirmed locally advanced (stage IIIB or IIIC) and stage IV non-small cell lung cancer that is inoperable and cannot receive radical concurrent chemoradiotherapy; (2) have at least one measurable lesion (according to RECIST 1.1); (3) have not received any systemic treatment (patients with recurrence more than 6 months after completion of prior neoadjuvant/adjuvant therapy may also be enrolled); (4) be aged between 18 and 75 years; (5) have ECOG of 0-1; (6) have an expected survival of ≥3 months; and (7) be available to provide tissue specimens for PD-L1 testing.
(§3) Unless otherwise specified, the efficacy analysis was based on the ITT set, which was analyzed by groups according to the treatment regimen to which patients were assigned at randomization.
The progression-free survival rate and median progression-free survival of the JS001+first-line standard treatment group and the placebo+first-line standard treatment group at different time points after the start of treatment were estimated by the Kaplan-Meier method, and Kaplan-Meier curves were plotted. The 95% confidence interval for progression-free survival rate at different time points (6 months and 1 year) was estimated using the Greenwood formula. The 95% confidence interval for median progression-free survival was estimated using the Brookmeyer-Crowley method where the log-log function conversion was used to reach normal approximation. Statistical test was performed on the inter-group difference by a stratified log-rank method for the total population. Statistical test was performed on the inter-group difference by a non-stratified log-rank method for the subpopulations. A stratified COX proportional hazards model was used to estimate the inter-group hazard ratio (HR) and the corresponding 95% confidence interval, and the tied events were processed by an exact method. Stratification analysis was performed using 3 stratification factors in the randomization process, including: (1) PD-L1 expression (TC≥1% vs TC<1%); (2) smoking status (frequent smoking vs no smoking or little smoking); and (3) pathological type (squamous cell carcinoma vs non-squamous cell carcinoma).
For analysis of secondary efficacy endpoints OS, DOR, and TTR, the method described above as applied to the primary efficacy endpoint PFS was used. […]

[2] = tested on: patients with untreated advanced NSCLC; experiment: Phase III clinical study, overall survival (OS); format: in vivo, human
Protocol: as §1, §2, §3
For analysis of secondary efficacy endpoints OS, DOR, and TTR, the method described above as applied to the primary efficacy endpoint PFS was used. For ORR and DCR, the percentage of patients in each treatment group was calculated, and their 95% confidence intervals were calculated using the Clopper-Pearson method. The nominal P values for inter-group comparison were calculated using the Cochran-Mantel-Haenszel method considering randomization stratification factors that were the same as the primary efficacy analysis, and the 95% CI for the inter-group rate differences was estimated.

[3] = tested on: patients with untreated advanced NSCLC; experiment: Phase III clinical study, safety analysis (SS population)
Protocol: This is a randomized, double-blind, placebo-controlled, multicenter, phase III clinical study for assessing the efficacy and safety of toripalimab (JS001) or placebo in combination with first-line chemotherapy in patients with untreated advanced NSCLC and exploring the population with optimal biomarker prediction.
Toripalimab 240 mg/placebo was administered by intravenous infusion once every three weeks (Q3W) in cycles of 21 days, with treatment continued until the patients met the discontinuation criteria, i.e., recorded progressive disease, unacceptable AEs, investigator-assessed unsuitability for continued treatment, withdrawal of informed consent, 2 years of JS001 treatment, or other reasons as specified in the protocol.
The selection of cisplatin or carboplatin was at the discretion of the investigator.
Safety analysis set (SS): including all patients who received at least one dose of the study drug (JS001/placebo/chemotherapeutic agent).
Safety analysis was performed in SS and crossover treatment analysis sets, where safety data from the double-blind stage of the primary study and the crossover treatment stage were analyzed separately. Safety analyses include drug exposure, compliance, adverse events, laboratory examinations, vital signs, physical examinations, electrocardiogramaminations, ECOG scores, etc.
All safety analyses were based on the SS population (464 patients), including 308 patients in the test group and 156 patients in the control group. […] The primary safety analysis results based on the SS population in the double-blind stage of the primary study are as follows:

[4] = patients with BOR reaching CR or PR, overall population
[5] = patients with non-squamous cell carcinoma
[6] = patients with non-squamous cell carcinoma, listed as test group
[7] = patients with squamous cell carcinoma
[8] = patients with squamous cell carcinoma, listed as test group
[9] = SS population, double-blind stage
[10] = compared to placebo + chemotherapy

Substance: JS001 + standard first-line chemotherapy: toripalimab 240 mg Q3W plus albumin-bound paclitaxel+carboplatin (squamous) or pemetrexed+cisplatin/carboplatin (non-squamous)
- PFS rate at 6 months ([1]; ITT): 62.3%
- PFS rate at 12 months ([1]; ITT): 32.6%
- increase of PFS rate at 6 months compared to control group ([1]; ITT): 20.8%
- increase of PFS rate at 12 months compared to control group ([1]; ITT): 19.5%
- HR for PFS (test vs control) ([1]; ITT population, RECIST 1.1): 0.58
- PFS prolonged by, compared to standard chemotherapy ([1]; ITT population, RECIST 1.1): 2.7 months
- reduction of the risk of progression or death, compared to standard chemotherapy ([1]; ITT population, RECIST 1.1): 42%
- median PFS ([1]; ITT population, RECIST 1.1, interim analysis as of Nov. 17, 2020): 8.3 months
- Best overall response: Complete response (CR) ([1]; non-squamous cell carcinoma): 0 N (%)
- Best overall response: Deletion ([1]; non-squamous cell carcinoma): 8 (4.9) N (%)
- Best overall response: Not evaluable (NE) ([1]; non-squamous cell carcinoma): 0 N (%)
- Best overall response: Partial response (PR) ([1]; non-squamous cell carcinoma): 95 (58.6) N (%)
- Best overall response: Progressive disease (PD) ([1]; non-squamous cell carcinoma): 5 (3.1) N (%)
- Objective response rate (ORR) ([1]; non-squamous cell carcinoma): 95 (58.6) N (%)
- DCR ([1]; overall population): 90.9%
- DOR prolonged by, compared to control group ([1]; overall population): 4.1 months
- HR for DOR (test vs control) ([1]; overall population): 0.56
- increase in ORR compared to control group ([1]; overall population): 21.7%
- ORR ([1]; overall population, RECIST v1.1): 63.4%
- median DOR [1, 4]: 8.3 months
- median TTR [1, 4]: 1.5 months
- HR for DOR (test vs control) [1, 5]: 0.63
- HR for PFS (test vs control) [1, 5]: 0.59
- ORR [1, 5]: 58.6%
- increase in ORR compared to control group [1, 5]: 32.1%
- median DOR (95% confidence interval) [1, 5]: 8.6 (6.9, NE) months
- median TTR (95% confidence interval) [1, 5]: 1.4 (1.4, 1.9) months
- median PFS ([1]; patients with non-squamous cell carcinoma, RECIST 1.1): 8.4 months
- median DOR (95% confidence interval) [1, 6]: 8.6 months
- median TTR (95% confidence interval) [1, 6]: 1.4 months
- HR for DOR (test vs control) [1, 7]: 0.46
- HR for PFS (test vs control) [1, 7]: 0.55
- ORR [1, 7]: 68.7%
- increase in ORR compared to control group [1, 7]: 9.8%
- median DOR (95% confidence interval) [1, 7]: 6.9 (4.5, NE) months
- median TTR (95% confidence interval) [1, 7]: 1.5 (1.4, 1.6) months
- median PFS ([1]; patients with squamous cell carcinoma, RECIST 1.1): 7.1 months
- median DOR (95% confidence interval) [1, 8]: 6.9 months
- median TTR (95% confidence interval) [1, 8]: 1.5 months
- Best overall response: Complete response (CR) ([1]; squamous cell carcinoma): 0 N (%)
- Best overall response: Deletion ([1]; squamous cell carcinoma): 8 (5.4) N (%)
- Best overall response: Not evaluable (NE) ([1]; squamous cell carcinoma): 1 (0.7) N (%)
- Best overall response: Partial response (PR) ([1]; squamous cell carcinoma): 101 (68.7) N (%)
- Best overall response: Progressive disease (PD) ([1]; squamous cell carcinoma): 6 (4.1) N (%)
- Objective response rate (ORR) ([1]; squamous cell carcinoma): 101 (68.7) N (%)
- HR for OS (test vs control) ([2]; ITT population): 0.81
- median OS ([2]; ITT population, as of Mar. 11, 2021, OS data not mature): 21.0 months
- deaths reported ([2]; as of Mar. 11, 2021, median follow-up 9.82 months): 25.6%
- HR for OS (test vs control) [2, 5]: 0.56
- HR for OS (test vs control) [2, 7]: 1.23
- median OS [2, 7]: 21.0 months
- SAE: anemia ([3]; SS population): 5.2%
- SAE: bone marrow depression ([3]; SS population): 1.0%
- SAE: infectious pneumonia ([3]; SS population): 4.9%
- SAE: leukopenia ([3]; SS population): 2.9%
- SAE: neutropenia ([3]; SS population): 5.5%
- SAE: thrombocytopenia ([3]; SS population): 6.8%
- TEAE: anemia ([3]; SS population): 88.3%
- TEAE: anorexia ([3]; SS population): 32.1%
- TEAE: constipation ([3]; SS population): 18.5%
- TEAE: elevated aspartate aminotransferase ([3]; SS population): 31.8%
- TEAE: fatigue ([3]; SS population): 33.4%
- TEAE: fever ([3]; SS population): 20.8%
- TEAE: hypothyroidism ([3]; SS population): 14.9%
- TEAE: leukopenia ([3]; SS population): 83.1%
- TEAE: nausea ([3]; SS population): 31.8%
- TEAE: neutropenia ([3]; SS population): 83.4%
- TEAE: rash ([3]; SS population): 20.1%
- TEAE: thrombocytopenia ([3]; SS population): 68.5%
- proportion of SAEs judged by the investigator to be related to the treatment regimen ([3]; SS population): 31.2%
- proportion of SAEs occurring during treatment ([3]; SS population): 38.6%
- proportion of SAEs of grade 3 or higher judged by the investigator to be related to the treatment regimen ([3]; SS population): 22.4%
- proportion of TEAEs of grade 3 or higher as per CTCAE ([3]; SS population): 76.3%
- proportion of TEAEs of grade 3 or higher as per CTCAE judged by the investigator to be related to the treatment regimen ([3]; SS population): 71.4%
- proportion of patients who experienced at least 1 TEAE [3, 9]: 99.0%
- proportion of patients who experienced at least 1 TEAE related to the treatment regimen [3, 9]: 98.1%
- effect on chemotherapy-related toxicity (in words) [3, 10]: did not increase chemotherapy-related toxicity
- effect on the incidence of adverse events of grade 3 or higher (in words) [3, 10]: did not increase the incidence of adverse events of grade 3 or higher
